Test system: rabbit cornea
Assay: Penetration enhancement testing: rate of diffusion of drug between chambers separated by rabbit cornea
Format: in vitro ADME
Settings: test drugs prednisolone, guanethidine, flurbiprofen, compound used as penetration enhancer
Protocol: Permeation efficiencies are determined by measuring the rate of diffusion of drug between posterior and anterior chambers separated by rabbit cornea. Suitable test drugs include prednisolone, guanethidine, and flurbiprofen. Compounds II and V, described in Examples 2 and 4 above, are tested penetration enhancers. Water, acetone, ethanol, and GBR (glutathione-buffered Ringer's solution) are convenient vehicles used alone or in combination together with the test drugs and the proposed penetration enhancers. The relative rates of diffusion can be determined indirectly by measuring pH versus time in the respective chambers, or by HPLC.

Row | Structure (SMILES) | penetration or permeation of test drugs relative to similar compositions without the present compounds
1 | CCOCCOCCOCCN1CCCCCC1=O [Compound II, N-triethoxyethylether Caprolactam] | enhanced penetration or permeation
2 | O=C1CCCCCN1CCOCCOCCO [Compound V, N-triethyleneglycol Caprolactam] | enhanced penetration or permeation
